Test results: ChEMBL document CHEMBL3885881, “DrugMatrix”

Organism: Rattus norvegicus
Assay: DrugMatrix - Regimen: Daily Repeat
Assay type: toxicity, organism-based, Sprague-Dawley
Parameters: regimen Daily Repeat, gender Male, age 6-8 weeks
Details: in vivo, po, route oral GAVAGE, vehicle 100 % WATER; for ABSOLUTE BASOPHIL / ABSOLUTE EOSINOPHIL / ABSOLUTE LYMPHOCYTE / ABSOLUTE MONOCYTE / ABSOLUTE SEGMENTED NEUTROPHIL / BASOPHIL / EOSINOPHIL / ERYTHROCYTE COUNT / HEMATOCRIT / HEMOGLOBIN / LEUKOCYTE COUNT / LYMPHOCYTE / MEAN CORPUSCULAR HEMOGLOBIN / MEAN CORPUSCULAR HEMOGLOBIN CONCENTRATION / MEAN CORPUSCULAR VOLUME / MONOCYTE / NEUTROPHIL / NUCLEATED RED BLOOD CELLS / PLATELET COUNT: tissue Blood; for ALANINE AMINOTRANSFERASE / ALBUMIN / ALKALINE PHOSPHATASE / ASPARTATE AMINOTRANSFERASE / BLOOD UREA NITROGEN / CARBON DIOXIDE / CHLORIDE / CHOLESTEROL / CREATINE PHOSPHOKINASE / CREATININE / GLUCOSE / LACTATE DEHYDROGENASE / LIPASE / PHOSPHORUS / POTASSIUM / SODIUM / TOTAL BILIRUBIN / TOTAL PROTEIN / URIC ACID: tissue Plasma
[1] = 0 mg/kg, 72 h, dose level Control, time 3 day
[2] = 0 mg/kg, 120 h, dose level Control, time 5 day
[3] = 63 mg/kg, 72 h, dose level High, time 3 day

## CNCCC=C1c2ccccc2CCc2ccccc21 [NORTRIPTYLINE]
[1]
  ABSOLUTE BASOPHIL: 0 CELLS/uL
  ABSOLUTE EOSINOPHIL: 123.17 CELLS/uL
  ABSOLUTE LYMPHOCYTE: 12677.83 CELLS/uL
  ABSOLUTE MONOCYTE: 66.17 CELLS/uL
  ABSOLUTE SEGMENTED NEUTROPHIL: 1149.5 CELLS/uL
  BASOPHIL: 0%
  EOSINOPHIL: 0.83%
  ERYTHROCYTE COUNT: 5.26 x10E6/uL
  HEMATOCRIT: 33.07%
  HEMOGLOBIN: 13.43 G/DL
  LEUKOCYTE COUNT: 14.02 x10E3/uL
  LYMPHOCYTE: 90.17%
  MEAN CORPUSCULAR HEMOGLOBIN: 25.62 pg
  MEAN CORPUSCULAR HEMOGLOBIN CONCENTRATION: 40.65 G/DL
  MEAN CORPUSCULAR VOLUME: 63 fL
  MONOCYTE: 0.5%
  NEUTROPHIL: 8.5%
  NUCLEATED RED BLOOD CELLS: 0.17 /100WBC
  PLATELET COUNT: 1142.83 x10E3/uL
  ALANINE AMINOTRANSFERASE: 45.17 u/L
  ALBUMIN: 3.78 G/DL
  ALKALINE PHOSPHATASE: 340.17 u/L
  ASPARTATE AMINOTRANSFERASE: 77.33 u/L
  BLOOD UREA NITROGEN: 14.67 mg/dL
  CARBON DIOXIDE: 28.67 mmol/L
  CHLORIDE: 101.17 MEQ/L
  CHOLESTEROL: 77.67 mg/dL
  CREATINE PHOSPHOKINASE: 263.67 u/L
  CREATININE: 0.15 mg/dL
  GLUCOSE: 169.33 mg/dL
  LACTATE DEHYDROGENASE: 230 u/L
  LIPASE: 9.67 u/L
  PHOSPHORUS: 11.8 mg/dL
  POTASSIUM: 5.91 MEQ/L
  SODIUM: 142.88 MEQ/L
  TOTAL BILIRUBIN: 0.22 mg/dL
  TOTAL PROTEIN: 5.7 G/DL
  URIC ACID: 1.35 mg/dL
[2]
  ABSOLUTE BASOPHIL: 0 CELLS/uL
  ABSOLUTE EOSINOPHIL: 125 CELLS/uL
  ABSOLUTE LYMPHOCYTE: 13809 CELLS/uL
  ABSOLUTE MONOCYTE: 351 CELLS/uL
  ABSOLUTE SEGMENTED NEUTROPHIL: 1581.67 CELLS/uL
  BASOPHIL: 0%
  EOSINOPHIL: 0.67%
  ERYTHROCYTE COUNT: 5.53 x10E6/uL
  HEMATOCRIT: 34.83%
  HEMOGLOBIN: 13.9 G/DL
  LEUKOCYTE COUNT: 15.87 x10E3/uL
  LYMPHOCYTE: 87.5%
  MEAN CORPUSCULAR HEMOGLOBIN: 25.25 pg
  MEAN CORPUSCULAR HEMOGLOBIN CONCENTRATION: 40.08 G/DL
  MEAN CORPUSCULAR VOLUME: 63.05 fL
  MONOCYTE: 2.17%
  NEUTROPHIL: 9.67%
  NUCLEATED RED BLOOD CELLS: 0 /100WBC
  PLATELET COUNT: 1044 x10E3/uL
  ALANINE AMINOTRANSFERASE: 50.67 u/L
  ALBUMIN: 4.33 G/DL
  ALKALINE PHOSPHATASE: 395 u/L
  ASPARTATE AMINOTRANSFERASE: 86 u/L
  BLOOD UREA NITROGEN: 15.33 mg/dL
  CARBON DIOXIDE: 29.33 mmol/L
  CHLORIDE: 101.5 MEQ/L
  CHOLESTEROL: 71.33 mg/dL
  CREATINE PHOSPHOKINASE: 323.17 u/L
  CREATININE: 0.18 mg/dL
  GLUCOSE: 145.67 mg/dL
  LACTATE DEHYDROGENASE: 389.5 u/L
  LIPASE: 9.83 u/L
  PHOSPHORUS: 11.35 mg/dL
  POTASSIUM: 6.39 MEQ/L
  SODIUM: 142.77 MEQ/L
  TOTAL BILIRUBIN: 0.18 mg/dL
  TOTAL PROTEIN: 6.1 G/DL
  URIC ACID: 1.52 mg/dL
[3]
  ABSOLUTE BASOPHIL: 0 CELLS/uL
  ABSOLUTE EOSINOPHIL: 63 CELLS/uL
  ABSOLUTE LYMPHOCYTE: 15345.67 CELLS/uL
  ABSOLUTE MONOCYTE: 215.33 CELLS/uL
  ABSOLUTE SEGMENTED NEUTROPHIL: 642.67 CELLS/uL
  BASOPHIL: 0%
  EOSINOPHIL: 0.33%
  ERYTHROCYTE COUNT: 6.2 x10E6/uL
  HEMATOCRIT: 38.33%
  HEMOGLOBIN: 14.97 G/DL
  LEUKOCYTE COUNT: 16.27 x10E3/uL
  LYMPHOCYTE: 94.33%
  MEAN CORPUSCULAR HEMOGLOBIN: 24.13 pg
  MEAN CORPUSCULAR HEMOGLOBIN CONCENTRATION: 39.07 G/DL
  MEAN CORPUSCULAR VOLUME: 61.83 fL
  MONOCYTE: 1.33%
  NEUTROPHIL: 4%
  NUCLEATED RED BLOOD CELLS: 1 /100WBC
  PLATELET COUNT: 1320 x10E3/uL
  ALANINE AMINOTRANSFERASE: 47.33 u/L
  ALBUMIN: 3.83 G/DL
  ALKALINE PHOSPHATASE: 416.67 u/L
  ASPARTATE AMINOTRANSFERASE: 75 u/L
  BLOOD UREA NITROGEN: 15 mg/dL
  CARBON DIOXIDE: 29.33 mmol/L
  CHLORIDE: 101 MEQ/L
  CHOLESTEROL: 74.67 mg/dL
  CREATINE PHOSPHOKINASE: 194 u/L
  CREATININE: 0.17 mg/dL
  GLUCOSE: 184 mg/dL
  LACTATE DEHYDROGENASE: 108 u/L
  LIPASE: 9 u/L
  PHOSPHORUS: 13.13 mg/dL
  POTASSIUM: 6.61 MEQ/L
  SODIUM: 143.73 MEQ/L
  TOTAL BILIRUBIN: 0.2 mg/dL
  TOTAL PROTEIN: 5.63 G/DL
  URIC ACID: 1.9 mg/dL
